The source of these data is ChEMBL document CHEMBL1201862, “PubChem BioAssay data set” (2004).

Some test systems named below: DLD-1; DMS-273; HCC 2998; HCT-15; M14; MOLT-4; NCI-H460; SF-295; SF-539; SK-MEL-28; SK-MEL-2; SNB-19; SNB-75; SR; UACC-257; UO-31; CAKI-1; MDA-MB-231; MDA-MB-435.
Holding throughout (assay): NCI-60 cell line screen, 48 h

Each structure is given as a SMILES string.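 Cells were grown in 96-well plates and exposed to each compound for 48 hours at five concentrations; endpoints were interpolated linearly between bracketing concentrations, or set to the highest concentration if not reached. GI50: concentration for 50% inhibition of growth.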 Activity calls are given as the source filed them. Cut-off read from the data, not from the text of the source: active = GI50 up to about 1.1 µM and inactive = higher.

Regarding `COc1ccc(S(=O)(=O)c2ccccc2[N+](=O)[O-])cc1`, the GI50 in the assay with DLD-1 was > 100 µM (inactive); in the assay on DMS-273 it was > 100 µM (inactive); with HCC 2998, > 100 µM (inactive); in the assay on HCT-15, more than 100 µM; in the assay on M14, > 100 µM (inactive); with MOLT-4, 92.3 µM (inactive). The GI50 in the assay on NCI-H460 is > 100 µM (inactive); in the assay with SF-295 it was 62.8 µM (inactive); in the assay on SF-539, > 100 µM (inactive); in the assay on SK-MEL-28 it was 53.5 µM (inactive); in the assay on SK-MEL-2 it was > 100 µM (inactive); in the assay with SNB-19 it was > 100 µM (inactive). Besides, the GI50 in the assay on SNB-75 was 21.9 µM (inactive); with SR it was > 100 µM (inactive); in the assay on UACC-257, 71.8 µM (inactive); with UO-31 it was 78 µM (inactive).
On to `CC1CCCP(=O)(c2ccccc2)CC1` (stereo unspecified), for which the GI50 in the assay on CAKI-1 is > 100 µM (inactive); in the assay with DLD-1, > 100 µM (inactive); in the assay with DMS-273, > 100 µM (inactive); in the assay with HCC 2998 it was > 100 µM (inactive); in the assay with HCT-15, more than 100 µM; in the assay on M14 it was > 100 µM (inactive). For the same molecule, the GI50 in the assay with MOLT-4, with NCI-H460, with SF-295, in the assay with SF-539, with SK-MEL-28 and in the assay on SK-MEL-2 was > 100 µM (inactive) each time. In addition, the GI50 in the assay with SNB-19, in the assay on SNB-75, with UACC-257 and in the assay on UO-31 was > 100 µM (inactive) each time.
Turning to `COc1ccc(NC(=O)CSc2nnc(Cc3ccccc3)o2)cc1`, the GI50 with CAKI-1 is > 100 µM (inactive); in the assay on DLD-1 it was > 100 µM (inactive); with DMS-273, > 100 µM (inactive); with HCC 2998 it was > 100 µM (inactive); in the assay on HCT-15, more than 100 µM; in the assay with M14, > 100 µM (inactive). Also, the GI50 was > 100 µM (inactive) with MOLT-4; > 100 µM (inactive) in the assay with NCI-H460; 55.6 µM (inactive) with SF-295; > 100 µM (inactive) in the assay on SF-539; > 100 µM (inactive) in the assay on SK-MEL-28; > 100 µM (inactive) in the assay on SK-MEL-2. The GI50 in the assay with SNB-19 is 97.7 µM (inactive); in the assay on SNB-75 it was > 100 µM (inactive); in the assay with UACC-257 it was > 100 µM (inactive); in the assay on UO-31 it was > 100 µM (inactive).
As for `O=C(N/C(=C\c1ccccc1)c1nc2ccccc2c(=O)o1)c1ccccc1`, the GI50 is > 78.3 µM (inactive) with CAKI-1; > 100 µM (inactive) with HCC 2998; 97.1 µM with HCT-15; > 79.6 µM (inactive) with M14; > 38.3 µM (inactive) in the assay with MDA-MB-231; 23.6 µM (inactive) with MDA-MB-435. For the same molecule, the GI50 with MOLT-4 is > 100 µM (inactive); in the assay on NCI-H460, > 72.6 µM (inactive); in the assay with SF-295 it was 36.2 µM (inactive); in the assay with SF-539, > 53.7 µM (inactive); in the assay with SK-MEL-28, > 100 µM (inactive); in the assay with SK-MEL-2 it was > 100 µM (inactive). Besides, the GI50 was 27.3 µM (inactive) with SNB-19; 20.4 µM (inactive) in the assay on SNB-75; > 100 µM (inactive) in the assay on SR; > 43.1 µM (inactive) with UACC-257; > 41.6 µM (inactive) in the assay with UO-31.
For `O=C1OC(c2ccccc2)=N/C1=C\c1cn[nH]n1`, the GI50 was > 100 µM (inactive) with CAKI-1; > 100 µM (inactive) with HCC 2998; more than 100 µM with HCT-15; > 100 µM (inactive) with M14; > 100 µM (inactive) in the assay with MDA-MB-231; > 100 µM (inactive) in the assay on MDA-MB-435. Besides, the GI50 with MOLT-4 was > 100 µM (inactive); in the assay with NCI-H460, > 100 µM (inactive); with SF-295 it was > 100 µM (inactive); in the assay with SF-539, 70.1 µM (inactive); in the assay with SK-MEL-28 it was > 100 µM (inactive); with SK-MEL-2 it was > 100 µM (inactive). Also, the GI50 with SNB-19 is > 100 µM (inactive); with SNB-75, > 100 µM (inactive); in the assay with SR, 59.6 µM (inactive); in the assay on UACC-257 it was > 100 µM (inactive); in the assay with UO-31, > 100 µM (inactive).
On to `O=C1N(CN2CCOCC2)CN(CN2CCOCC2)C(=O)N1Cc1ccccc1`, for which the GI50 in the assay on CAKI-1 is 29.2 µM (inactive); with HCC 2998, 30.9 µM (inactive); in the assay with HCT-15 it was 27.6 µM; with M14, 19.2 µM (inactive); with MDA-MB-231, 26.2 µM (inactive); in the assay on MDA-MB-435, 20 µM (inactive). Further, the GI50 in the assay on MOLT-4 is 20.1 µM (inactive); in the assay with NCI-H460 it was 32.6 µM (inactive); in the assay with SF-295 it was > 100 µM (inactive); in the assay on SF-539, 19.2 µM (inactive); in the assay on SK-MEL-28, 19.3 µM (inactive); in the assay with SK-MEL-2, 16.3 µM (inactive). For the same molecule, the GI50 with SNB-19 was > 100 µM (inactive); in the assay with SNB-75 it was 25.5 µM (inactive); with SR, 18.8 µM (inactive); in the assay with UACC-257, 21.7 µM (inactive); with UO-31, 28.1 µM (inactive).
`CCN(CC)CCCNc1nncc2c(C)c3[nH]c4ccccc4c3cc12`: the GI50 in the assay with CAKI-1 is 3.61 µM (inactive); in the assay on HCC 2998, 0.802 µM (active); with HCT-15 it was 7.57 µM; in the assay on M14, 1.89 µM (inactive); with MDA-MB-231, 0.374 µM (active); in the assay with MDA-MB-435, 1.25 µM (inactive). For the same molecule, the GI50 in the assay with MOLT-4 is 0.0241 µM (active); with NCI-H460 it was 0.281 µM (active); in the assay with SF-295, 2.74 µM (inactive); with SF-539 it was 1.12 µM (inactive); with SK-MEL-28 it was 1.24 µM (inactive); with SK-MEL-2, 2.22 µM (inactive). The GI50 is 0.644 µM (active) in the assay on SNB-19; 1.41 µM (inactive) in the assay on SNB-75; 0.247 µM (active) in the assay with SR; 1.24 µM (inactive) with UACC-257; 5.79 µM (inactive) in the assay with UO-31.
As for `OC1C[C@H](c2ccccc2)C2(C(O)c3ccccc3C2O)[C@@H](c2ccccc2)C1` (stereo partly specified), the GI50 in the assay on CAKI-1 is > 100 µM (inactive); in the assay with HCC 2998, > 100 µM (inactive); in the assay on HCT-15, more than 100 µM; in the assay on M14, > 100 µM (inactive); in the assay with MDA-MB-231, > 100 µM (inactive); in the assay on MDA-MB-435, > 100 µM (inactive). The GI50 with MOLT-4, with NCI-H460, in the assay with SF-295, in the assay on SF-539, with SK-MEL-28 and in the assay with SK-MEL-2 was > 100 µM (inactive) in each case. Moreover, the GI50 was > 100 µM (inactive) with SNB-19; 53.7 µM (inactive) in the assay on SNB-75; 11.1 µM (inactive) in the assay on SR; 32.2 µM (inactive) in the assay with UACC-257; > 100 µM (inactive) in the assay on UO-31.
Turning to `N#C/C(=C/NC(=S)NCc1ccccc1)C(N)=O`, the GI50 was > 100 µM (inactive) in the assay with CAKI-1; > 100 µM (inactive) in the assay on HCC 2998; more than 100 µM with HCT-15; > 100 µM (inactive) in the assay on M14; > 100 µM (inactive) with MDA-MB-231; > 100 µM (inactive) in the assay on MDA-MB-435. In addition, the GI50 with MOLT-4, in the assay with NCI-H460, in the assay with SF-295, with SF-539, in the assay with SK-MEL-28 and in the assay on SK-MEL-2 was > 100 µM (inactive) throughout. For the same molecule, the GI50 in the assay with SNB-19 was > 100 µM (inactive); in the assay with SNB-75, > 100 µM (inactive); in the assay on SR, > 100 µM (inactive); with UACC-257, > 100 µM (inactive); in the assay on UO-31, 50.1 µM (inactive).
As for `CN(C)C(=O)O/N=C1/C(=C2/C(=O)Nc3ccccc32)Nc2ccccc21`, the GI50 in the assay with CAKI-1 was 0.883 µM (active); in the assay with HCC 2998, 38.5 µM (inactive); with HCT-15, 19.2 µM; with M14 it was 50.1 µM (inactive); with MDA-MB-231, 11.6 µM (inactive); in the assay with MDA-MB-435, 50.7 µM (inactive). The GI50 with MOLT-4 was 10.4 µM (inactive); in the assay on NCI-H460 it was 7.96 µM (inactive); with SF-295, 19.1 µM (inactive); in the assay with SF-539, 9.77 µM (inactive); with SK-MEL-28, 36.5 µM (inactive); with SK-MEL-2, 8.53 µM (inactive). In addition, the GI50 with SNB-19 is 10.9 µM (inactive); with SNB-75 it was 2.45 µM (inactive); in the assay on SR, 4.89 µM (inactive); in the assay on UACC-257, 27.2 µM (inactive); in the assay with UO-31 it was 21.6 µM (inactive).
Regarding `O=C1OC2(c3ccc(O)cc3Oc3cc(O)ccc32)c2c1c(-c1ccccc1)c(-c1ccccc1)c(-c1ccccc1)c2-c1ccccc1`, the GI50 was 25.1 µM (inactive) in the assay with CAKI-1; 16.4 µM (inactive) in the assay on HCC 2998; 18.7 µM with HCT-15; 18.2 µM (inactive) in the assay on M14; 18.7 µM (inactive) in the assay on MDA-MB-231; 17.2 µM (inactive) in the assay with MDA-MB-435. For the same molecule, the GI50 with MOLT-4 is 23.9 µM (inactive); in the assay with NCI-H460 it was 17.7 µM (inactive); in the assay with SF-295 it was 21.6 µM (inactive); in the assay on SF-539, 22.9 µM (inactive); in the assay with SK-MEL-28 it was 20.8 µM (inactive); in the assay with SK-MEL-2 it was 20 µM (inactive). The GI50 in the assay with SNB-19 was 18.7 µM (inactive); in the assay on SNB-75 it was 18.7 µM (inactive); with SR, 22.6 µM (inactive); in the assay on UACC-257, 27.7 µM (inactive); in the assay on UO-31, 25.7 µM (inactive).
Regarding `CC(C)(C)N(Cc1ccc2c(c1)OCO2)C(=O)/C=C\[S+]([O-])c1ccccc1` (stereo unspecified), the GI50 with CAKI-1 is 4.53 µM (inactive); with HCC 2998, 4.45 µM (inactive); in the assay on HCT-15, 2.65 µM; in the assay with M14 it was 2.28 µM (inactive); in the assay on MDA-MB-231, 2.95 µM (inactive); with MDA-MB-435, 2.12 µM (inactive). Moreover, the GI50 in the assay on MOLT-4 is 2.3 µM (inactive); in the assay with NCI-H460 it was 4.19 µM (inactive); with SF-295 it was 9.79 µM (inactive); with SF-539, 2.3 µM (inactive); in the assay on SK-MEL-28, 7.89 µM (inactive); in the assay with SK-MEL-2 it was 3.02 µM (inactive). In addition, the GI50 is 7.67 µM (inactive) in the assay on SNB-19; 2.99 µM (inactive) in the assay with SNB-75; 1.44 µM (inactive) in the assay on SR; 3.48 µM (inactive) in the assay with UACC-257; 2.19 µM (inactive) in the assay with UO-31.
